Data: publication PMC3877901, “Screening Mangrove Endophytic Fungi for Antimalarial Natural Products” (Marine Drugs, 2013)
“Also recorded” adds a separate entry of the source. Where two headings read alike, the source gives them in different places.

Key:
[1] = tested on: A549 human lung adenocarcinoma epithelial cells; assay: In vitro toxicity assay: cytotoxicity against A549 cells (CellTiter 96 Aqueous One, 72 h); details: for IC50: Homo sapiens, A549, 72 h, read-out: IC50 (nM) A549
[2] = tested on: Plasmodium falciparum (3D7, a drug sensitive strain); assay: Malaria assay: anti-malarial activity against Plasmodium falciparum (3D7); type: cell-based
[3] = tested on: A549 human lung adenocarcinoma epithelial cells
[4] = Plasmodium falciparum 3D7, read-out: IC50 (nM) 3D7
[5] = Plasmodium falciparum, 3D7, read-out: IC50 (nM) 3D7

| Compound | IC50 [1] | IC50 [2, 4] | IC50 [2, 5] | also measured |
| --- | --- | --- | --- | --- |
| CCCc1c(Cl)c(OC)cc(OC)c1C(=O)O [Compound 11, acremonisol A] | > 38700 nM | 36000 nM |  | antimalarial activity (in words) ([2]; P. falciparum 3D7): devoid of antimalarial activity |
| C[C@H]1CC(=O)O[C@@H]1[C@@]1(CO)CC(=O)c2c(ccc(-c3ccc(O)c4c3O[C@](CO)([C@H]3OC(=O)C[C@@H]3C)CC4=O)c2O)O1 [Compound 15, diaporthochromone A] | > 25000 nM | > 25000 nM |  |  |
| C=C1C(C)C2C(Cc3ccccc3)NC(=O)C23C(O)C=CC(C)(O)CC(C)CC=CC3C1O (centres unmarked) [Compound 6] |  | < 20 nM |  |  |
| CC(=O)OC1C=CC(C)(O)C(=O)C(C)CC=CC2C(O)C3(C)OC3(C)C3C(Cc4ccccc4)NC(=O)C123 (centres unmarked) [Compound 3] |  |  | < 20 nM |  |
| CC(=O)OC1C=CC(C)(O)C(=O)C(C)CC=CC2C3OC3(C)C(C)C3C(Cc4ccccc4)N(C)C(=O)C123 (centres unmarked) [Compound 8] |  |  | 26 nM |  |
| CC(=O)OC1C=CC(C)(O)C(=O)C(C)CC=CC2C(O)C(C)=C(C)C3C(Cc4ccccc4)NC(=O)C123 (centres unmarked) [Compound 2] |  |  | 136 nM |  |
| CC1CC(=O)OC1C1(CO)CC(=O)c2c(ccc(-c3ccc4c(c3O)C(=O)CC(CO)(C3OC(=O)CC3C)O4)c2O)O1 (centres unmarked) [Compound 16, Diaporthochromone B] | > 25000 nM | > 25000 nM |  |  |
| CC(=O)OC[C@]12Oc3ccc(-c4ccc5c(c4O)C(=O)C4=C(O)C[C@@H](C)[C@@H](OC(C)=O)[C@@]4(CO)O5)c(O)c3C(=O)C1=C(O)C[C@@H](C)[C@H]2OC(C)=O [Compound 13, Dicerandrol B] | > 25000 nM |  | > 25000 nM | cytotoxicity (in words) [3]: failed to show either activity; antimalarial activity (in words) [2]: failed to show either activity |
| COc1ccc(C)c2c1C(=O)OC(C)C2 (centres unmarked) [Compound 12, 3,5-dimethyl-8-methoxy-3,4-dihydroisocoumarin] | > 48500 nM | > 48500 nM |  | antimalarial activity (in words) ([2]; P. falciparum 3D7): devoid of antimalarial activity |
| C=C1C(C)C2C(Cc3ccccc3)NC(=O)C23C(OC(C)=O)C=CC(C)(O)CC(C)CC=CC3C1O (centres unmarked) [Compound 5] |  |  | < 20 nM |  |
| CCC(C)CC(C)/C=C/C=C/C(=O)O (centres unmarked) [Compound 18, (2E,4E)-6,8-Dimethyldeca-2,4-dienoic Acid] | > 25000 nM | > 25000 nM |  | antimalarial activity (in words) ([2]; P. falciparum 3D7): inactive |
| O=C1C(O)=C([C@H]2CC[C@H](c3ccc(Cl)cc3)CC2)C(=O)c2ccccc21 [ATO, atovaquone, reference compound] | > 25000 nM | 0.3 nM |  |  |
| CCN(CC)CCCC(C)Nc1ccnc2cc(Cl)ccc12 (centres unmarked) [CQ, chloroquine, reference compound] | > 25000 nM |  | 4.5 nM |  |
| CC(=O)OC1C=CC(C)(O)C(=O)C(C)CC2OC2C2C3OC3(C)C(C)C3C(Cc4ccccc4)N(C)C(=O)C132 (centres unmarked) [Compound 7] |  |  | 290 nM |  |
| C=C1[C@@H](C)[C@H]2[C@H](Cc3ccccc3)NC(=O)[C@]23[C@H](OC(C)=O)/C=C/[C@@](C)(O)C(=O)[C@@H](C)C/C=C/[C@H]3[C@@H]1O [Compound 4, cytochalasin D] |  |  | 25.8 nM |  |
| CC(=O)OC[C@]12Oc3ccc(-c4ccc5c(c4O)C(=O)C4=C(O)C[C@@H](C)[C@@H](OC(C)=O)[C@]4(CO)O5)c(O)c3C(=O)C1=C(O)C[C@@H](C)[C@H]2OC(C)=O [Compound 14, dicerandrol D] | 7800 nM |  | 600 nM | cytotoxicity relative to malaria activity ([3]; human): at least 10 fold; S.I. A549/3D7 (selectivity index) [1]: 13; antimalarial activity (in words) [2]: nanomolar antimalarial activity; also recorded: strong activity against P. falciparum; also recorded: nanomolar malaria activity |
| CC(=O)OC1C2OC2C(C)(O)C(=O)C(C)CC=CC2C(O)C(C)=C(C)C3C(Cc4ccccc4)NC(=O)C213 (centres unmarked) [Compound 1] |  |  | < 20 nM |  |
| C[C@H]1[C@@H](O)O[C@@H]2O[C@@]3(C)CC[C@H]4[C@H](C)CC[C@@H]1[C@@]24OO3 [DHA, dihydroartemisinin, reference compound] | > 25000 nM | 0.8 nM |  |  |
| C=C1C2CC3OC(=O)C=CC=CC(C(C)O)OCCC(C)=CC(=O)OCC4(CCC(C)=CC4O2)C13C (centres unmarked) [Compound 10] | < 200 nM |  | < 20 nM |  |
| CCCCC/C=C(/C(=O)O)C(C)C(=O)O (centres unmarked) [Compound 19, piliformic acid] | > 25000 nM | > 25000 nM |  | antimalarial activity (in words) ([2]; P. falciparum 3D7): inactive |
